Drawing on ChEMBL document CHEMBL1149662, “Design and synthesis of a library of tertiary amides: evaluation as mimetics of the melanocortins' active core” (Bioorg Med Chem, 2007), this text covers Ki for 33 compounds.

Test [1] deals with Melanocyte-stimulating hormone receptor (Mus musculus, UniProt Q01727). Nature of the test: Displacement of [125I]NDP-MSH from MC1 receptor in mouse B16 cells. Type of test: cell-based. (Displacement assays read how much labelled ligand stays bound in the presence of the test substance.)
For the next test, the target named is Melanocortin receptor 5 (Homo sapiens, UniProt P33032). Nature of the test: Displacement of [125I]NDP-MSH from human recombinant MC5 receptor expressed in Sf9 cells.
The next test addresses Melanocortin receptor 3 (Homo sapiens, UniProt P41968). Nature of the test: Displacement of [125I]NDP-MSH from human recombinant MC3 receptor expressed in Sf9 cells.
Another test has as its target Melanocortin receptor 4 (Homo sapiens, UniProt P32245). Nature of the test: Displacement of [125I]NDP-MSH from human recombinant MC4 receptor expressed in Sf9 cells.

Melanocortin receptor 5, sequence (P33032 whole entry): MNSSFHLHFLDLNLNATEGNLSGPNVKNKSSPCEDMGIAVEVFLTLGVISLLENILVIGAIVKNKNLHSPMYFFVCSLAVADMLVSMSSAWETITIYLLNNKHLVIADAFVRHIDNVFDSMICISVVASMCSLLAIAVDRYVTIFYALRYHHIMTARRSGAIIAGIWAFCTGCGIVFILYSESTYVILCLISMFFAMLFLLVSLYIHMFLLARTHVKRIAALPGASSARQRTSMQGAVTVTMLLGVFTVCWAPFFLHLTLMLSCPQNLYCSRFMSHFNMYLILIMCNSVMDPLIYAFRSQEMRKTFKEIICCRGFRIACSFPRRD
Melanocyte-stimulating hormone receptor, sequence (Q01727 whole entry): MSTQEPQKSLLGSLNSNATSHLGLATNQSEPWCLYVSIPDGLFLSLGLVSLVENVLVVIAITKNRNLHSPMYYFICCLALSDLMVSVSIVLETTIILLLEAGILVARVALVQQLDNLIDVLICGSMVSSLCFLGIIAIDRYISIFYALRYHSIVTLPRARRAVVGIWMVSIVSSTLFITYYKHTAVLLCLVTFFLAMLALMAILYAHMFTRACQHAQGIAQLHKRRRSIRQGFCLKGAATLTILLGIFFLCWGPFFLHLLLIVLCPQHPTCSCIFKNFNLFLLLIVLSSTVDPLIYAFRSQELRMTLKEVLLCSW
Melanocortin receptor 4, sequence (P32245 whole entry): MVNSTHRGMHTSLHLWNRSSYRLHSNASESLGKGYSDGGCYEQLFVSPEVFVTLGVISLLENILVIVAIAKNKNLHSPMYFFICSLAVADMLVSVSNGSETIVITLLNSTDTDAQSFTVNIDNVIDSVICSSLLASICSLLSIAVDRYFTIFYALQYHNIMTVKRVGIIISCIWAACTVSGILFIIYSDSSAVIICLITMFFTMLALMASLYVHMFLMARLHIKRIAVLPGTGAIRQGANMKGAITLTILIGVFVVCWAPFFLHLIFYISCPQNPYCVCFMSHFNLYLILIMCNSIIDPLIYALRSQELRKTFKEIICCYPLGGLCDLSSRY
Melanocortin receptor 3, sequence (P41968 whole entry): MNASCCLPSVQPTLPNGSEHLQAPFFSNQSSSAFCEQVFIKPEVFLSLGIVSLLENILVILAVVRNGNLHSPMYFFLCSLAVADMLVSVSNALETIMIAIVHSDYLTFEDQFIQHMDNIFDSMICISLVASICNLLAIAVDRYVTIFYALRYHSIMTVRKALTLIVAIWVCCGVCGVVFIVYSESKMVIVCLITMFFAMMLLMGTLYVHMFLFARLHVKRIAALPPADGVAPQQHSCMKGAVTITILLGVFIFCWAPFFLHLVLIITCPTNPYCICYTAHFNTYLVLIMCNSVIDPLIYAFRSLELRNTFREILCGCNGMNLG

Take `NCCN(C(=O)COc1ccc2ccccc2c1)C1CCC2(CCCCC2)CC1`: the Ki was 6 µM in test [1], 3.4 µM at Melanocortin receptor 5, 2.1 µM on Melanocortin receptor 3 and 4.9 µM at Melanocortin receptor 4.
Regarding `COc1ccc2c(c1)c(CC(=O)N(CCCCN)C/C(C)=C/c1ccccc1)c(C)n2C(=O)c1ccc(Cl)cc1`, the Ki was 1.8 µM in test [1], 56 µM on Melanocortin receptor 5, 30 µM on Melanocortin receptor 3 and 7.1 µM on Melanocortin receptor 4.
`Cc1ccc(CN(C(=O)CCCc2c[nH]c3ccccc23)C2CCC(CC3CCC(N)CC3)CC2)cc1` (stereo not drawn): the Ki in test [1] stood at 1.3 µM; on Melanocortin receptor 5 it was 10 µM; at Melanocortin receptor 3 it was 220 µM; at Melanocortin receptor 4, 2.1 µM.
For `COc1ccc(CN(C(=O)CCCc2c(Cc3ccc(O)cc3)[nH]c3ccccc23)C2CCC(CC3CCC(N)CC3)CC2)cc1OC` (stereo not drawn), in that order: 1.9 µM, 11 µM, 23 µM and 2.4 µM.
For the compound `NC1CCC(CC2CCC(N(C/C(Cl)=C/c3ccccc3)C(=O)COc3ccc4ccccc4c3)CC2)CC1` (stereo in doubt; form 4), the figures for the Ki (in test [1]; on Melanocortin receptor 4) were 0.96 µM and 4.4 µM, respectively.
Take `NC1CCC(CC2CCC(N(Cc3ccccc3)C(=O)CCCc3c[nH]c4ccccc34)CC2)CC1` (stereo in doubt): the inhibitory constant (Ki) in test [1] came to 1.4 µM; on Melanocortin receptor 5, 105 µM; at Melanocortin receptor 3, 15 µM; on Melanocortin receptor 4 it was 2.6 µM.
For `Cc1ccccc1CN(C(=O)CCCc1c(Cc2ccc(O)cc2)[nH]c2ccccc12)C1CCC(CC2CCC(N)CC2)CC1` (stereo not drawn), in that order: 4.7 µM, 4.4 µM, 349 µM and 4.1 µM.
For `CC1CC(CC2CCC(N(Cc3ccccc3)C(=O)CCCc3c[nH]c4ccccc34)C(C)C2)CCC1N` (stereo in doubt; form 4), in that order: 1.3 µM, 5.6 µM, 12 µM and 3.8 µM.
As to `NCCN(C(=O)Cc1c[nH]c2ccccc12)C1CCc2ccccc2C1` (stereo not drawn), the Ki in test [1] was 4 µM; at Melanocortin receptor 5 it was 29 µM; at Melanocortin receptor 3 it was 16 µM; on Melanocortin receptor 4 it was 42 µM.
For `NCCCCCN(Cc1ccccc1)C(=O)CCCc1c(Cc2ccc(O)cc2)[nH]c2ccccc12`, in that order: 2 µM, 5.1 µM, 47 µM and 5 µM.
Consider `NC1CCC(CC2CCC(N(Cc3c(F)cccc3F)C(=O)CCCc3c[nH]c4ccccc34)CC2)CC1` (stereo not drawn), for which the Ki in test [1] stood at 1.8 µM; at Melanocortin receptor 5, 83 µM; at Melanocortin receptor 3 it was 52 µM; at Melanocortin receptor 4 it was 3 µM.
As to `NC(N)=NCCCCN(Cc1ccc2ccccc2c1)C(=O)CCc1c[nH]c2ccccc12`, the inhibition constant Ki in test [1] was 12 µM; on Melanocortin receptor 5 it was 21 µM; on Melanocortin receptor 3, 50 µM; at Melanocortin receptor 4, 116 µM.
For `NC1CCC(CC2CCC(N(C/C(Cl)=C/c3ccccc3)C(=O)COc3ccc4ccccc4c3)CC2)CC1` (stereo in doubt; form 6), the Ki in test [1] is 1.9 µM; on Melanocortin receptor 4 it was 5 µM.
In the case of `NCCCN1CCN(CCCN(Cc2ccccc2)C(=O)CCCc2c[nH]c3ccccc23)CC1`, the Ki in test [1] came out at 6.4 µM; on Melanocortin receptor 5, 22 µM; on Melanocortin receptor 3, 52 µM; at Melanocortin receptor 4 it was 16 µM.
Turning to `NCCN(Cc1ccc2ccccc2c1)C(=O)c1c[nH]c2ccccc12`, the Ki in test [1] was 3.6 µM; at Melanocortin receptor 5, 27 µM; at Melanocortin receptor 3 it was 134 µM; on Melanocortin receptor 4, 66 µM.
For `COc1cc(O)ccc1/C=C/CN(C(=O)CCCc1c[nH]c2ccccc12)C1CCC(CC2CCC(N)CC2)CC1` (stereo in doubt; form 2), in that order: 3.3 µM, 11 µM, 51 µM and 8 µM.
For `CC(c1ccc(C(F)(F)F)cc1)N(CCCCCN)C(=O)Cc1c[nH]c2ccccc12` (stereo not drawn), in that order: 2.6 µM, 11 µM, 12 µM and 16 µM.
For `NCCCN(C/C=C/c1ccccc1)C(=O)C(=O)c1c[nH]c2ccccc12`, in that order: 1.6 µM, 4.9 µM, 17 µM and 5 µM.
For the compound `NCCCCN(Cc1ccccc1)C(=O)CCCc1c(Cc2ccc(O)cc2)[nH]c2ccccc12`, the Ki in test [1] was found to be 7.7 µM; on Melanocortin receptor 5 it was 4.6 µM; at Melanocortin receptor 3, 16 µM; on Melanocortin receptor 4, 6.2 µM.
The matching figures for `CC(Cc1ccccc1)CN(CCCCCCN)C(=O)c1cc2cc(O)ccc2[nH]1` (stereo not drawn): 2.9 µM, 31 µM, 46 µM and 9.8 µM.
On to `NCCCN(CCCc1ccccc1)C(=O)Cc1c[nH]c2ccccc12`, for which the Ki in test [1] is 5 µM; on Melanocortin receptor 5, 13 µM; at Melanocortin receptor 3 it was 5.7 µM; at Melanocortin receptor 4, 32 µM.
With `Cc1ccc(CN(C(=O)CCCc2c(Cc3ccc(O)cc3)[nH]c3ccccc23)C2CCC(CC3CCC(N)CC3)CC2)cc1` (stereo not drawn), the Ki in test [1] is 4.7 µM; on Melanocortin receptor 5, 2.2 µM; at Melanocortin receptor 3 it was 147 µM; on Melanocortin receptor 4, 1.9 µM.
For the compound `NCCN(Cc1ccccc1)C(=O)CCCc1c[nH]c2ccccc12`, the inhibition constant Ki in test [1] stood at 22 µM; on Melanocortin receptor 3, 49 µM; at Melanocortin receptor 4, 21 µM.
Take `NCCN(CCCc1ccccc1)C(=O)CCc1c[nH]c2ccccc12`: the figures for the inhibition constant Ki (in test [1]; at Melanocortin receptor 5; at Melanocortin receptor 3) were 21 µM, 20 µM and 127 µM, respectively.
`NCCN(C/C(Cl)=C/c1ccccc1)C(=O)CCCc1c[nH]c2ccccc12`: the inhibition constant (Ki) in test [1] came out at 5.6 µM; at Melanocortin receptor 3, 65 µM; at Melanocortin receptor 4 it was 5.8 µM.
For `NC1CCC(CC2CCC(N(C/C(Cl)=C/c3ccccc3)C(=O)COc3ccc4ccccc4c3)CC2)CC1` (stereo in doubt; form 7), the Ki was found to be 1.3 µM in test [1] and 4 µM on Melanocortin receptor 4.
Take `NCCCCCN(CCCc1ccccc1)C(=O)CCCc1c[nH]c2ccccc12`: the values for the Ki (in test [1]; at Melanocortin receptor 5; at Melanocortin receptor 3) were 18 µM, 19 µM and 61 µM, respectively.
Take `NC1CCC(CC2CCC(N(C/C(Cl)=C/c3ccccc3)C(=O)COc3ccc4ccccc4c3)CC2)CC1` (stereo in doubt; form 2): the figures for the Ki (in test [1]; at Melanocortin receptor 3; at Melanocortin receptor 4) were 1.5 µM, 289 µM and 5.9 µM, respectively.
With `NC1CCC(CC2CCC(N(C/C(Cl)=C/c3ccccc3)C(=O)COc3ccc4ccccc4c3)CC2)CC1` (stereo in doubt; form 1), the Ki in test [1] was 1.9 µM; at Melanocortin receptor 4 it was 4.7 µM.
On to `C/C(=C/c1ccccc1)CN(CCCCCN)C(=O)/C=C/c1c[nH]c2ccccc12`, for which the Ki in test [1] is 2.7 µM; at Melanocortin receptor 5 it was 17 µM; on Melanocortin receptor 4 it was 99 µM.
For `NC1CCC(CC2CCC(N(C/C(Cl)=C/c3ccccc3)C(=O)COc3ccc4ccccc4c3)CC2)CC1` (stereo in doubt; form 3), the inhibition constant (Ki) in test [1] was found to be 0.41 µM; on Melanocortin receptor 4 it was 3.4 µM.
The matching figures for `NCCCN(C(=O)CCc1c[nH]c2ccccc12)C1CCc2ccccc2C1` (stereo not drawn): 3.7 µM and 7 µM.
As to `NC1CCC(CC2CCC(N(Cc3ccncc3)C(=O)CCCc3c[nH]c4ccccc34)CC2)CC1` (stereo in doubt; form 1), the inhibitory constant (Ki) in test [1] came to 2.5 µM; on Melanocortin receptor 3, 28 µM; at Melanocortin receptor 4 it was 7 µM.

The term Ki denotes the dissociation constant of the complex between target and ligand, obtained from inhibition or displacement.
